Data set [1] has as its target PI3Ka (Homo sapiens, UniProt P42336). The data set can be described thus: Z′-LYTE / ADAPTA kinase assay, PI3Ka. Type of data set: biochemical. As to conditions: for inhibition at 0.1 µM: read-out: PI3Ka % Inh. @100 nM. The text has this: The Z′-LYTE® biochemical assay employs a fluorescence-based, coupled-enzyme format and is based on the differential sensitivity of phosphorylated and non-phosphorylated peptides to proteolytic cleavage (FIG. 6). The peptide substrate is labeled with two fluorophores—one at each end—that make up a FRET pair. In the primary reaction, the kinase transfers the gamma-phosphate of ATP to a single tyrosine, serine or threonine residue in a synthetic FRET-peptide. In the secondary reaction, a site-specific protease recognizes and cleaves non-phosphorylated FRET-peptides. Phosphorylation of FRET-peptides suppresses cleavage by the Development Reagent. Cleavage disrupts FRET between the donor (i.e., coumarin) and acceptor (i.e., fluorescein) fluorophores on the FRET-peptide, whereas uncleaved, phosphorylated FRET-peptides maintain FRET. A ratiometric method, which calculates the ratio (the Emission Ratio) of donor emission to acceptor emission after excitation of the donor fluorophore at 400 nm, is used to quantitate reaction progress.
A significant benefit of this ratiometric method for quantitating reaction progress is the elimination of well-to-well variations in FRET-peptide concentration and signal intensities. As a result, the assay yields very high Z′-factor values (>0.7) at a low percent phosphorylation.
Both cleaved and uncleaved FRET-peptides contribute to the fluorescence signals and therefore to the Emission Ratio. The extent of phosphorylation of the FRET-peptide can be calculated from the Emission Ratio.
Enzyme: The ADAPTA universal kinase assay is a homogenous, fluorescent based immunoassay for the detection of ADP. In contrast to ATP depletion assays, the ADAPTA assay is extremely sensitive to ADP formation such that a majority of the signal change occurs in the first 10-20% conversion of ATP to ADP. This makes the ADAPTA universal kinase assay ideally suited for use with low activity kinases.
The principle of the ADAPTA universal kinase assay is outlined below. The assay itself can be divided into two phases: a kinase reaction phase, and an ADP detection phase. In the kinase reaction phase, all components required for the kinase reaction are added to the well, and the reaction is allowed to incubate for 60 minutes. After the reaction, a detection solution consisting of a europium labeled anti-ADP antibody, an AlexaFluor® 647 labeled ADP tracer, and EDTA (to stop the kinase reaction) is added to the assay well. ADP formed by the kinase reaction (in the absence of an inhibitor) will displace the Alexa Fluor®647 labeled ADP tracer from the antibody, resulting in a decrease in the TR-FRET signal.
Test Compounds: The Test Compounds are screened in 1% DMSO (final) in the well. For 10 point titrations, 3-fold serial dilutions are conducted from the starting concentration.
Peptide/Kinase Mixtures: All Peptide/Kinase Mixtures are diluted to a 2× working concentration in the appropriate Kinase Buffer.
ATP Solution: All ATP Solutions are diluted to a 4× working concentration in Kinase Buffer (50 mM HEPES pH 7.5, 0.01% BRIJ-35, 10 mM MgCl2, 1 mM EGTA). ATP Km apparent is previously determined using a Z′-LYTE® assay.
Development Reagent Solution: The Development Reagent is diluted in Development Buffer.
10× Novel PKC Lipid Mix: 2 mg/mL Phosphatidyl Serine, 0.2 mg/mL DAG in 20 mM HEPES, pH 7.4, 0.3% CHAPS. For 5 mL 10× Novel PKC Lipid Mix: 1. Add 10 mgs Phosphatidyl Serine (Avanti Polar Lipids Part #8400032C or 840039C) and 1 mg DAG (Avanti Polar Lipids Part #800811 C) to a glass tube. 2. Remove the chloroform from lipid mixture by evaporating to a clear, thin film under a stream of nitrogen. Continuous rotation of the tube, at an angle to ensure maximum surface area of the lipid solution, will promote the thinnest film. 3. Add 5 mLs resuspension buffer, 20 mM HEPES, 0.3% CHAPS, pH 7.4, to the dried lipid mix 4. Heat gently to 50-60° C. for 1-2 minutes and vortex in short intervals until the lipids are dissolved to a clear or slightly hazy solution. […]

A short description of data set [2]: Solubility determination (PBS 7.4, SIF, SGF). Type of data set: physicochemical. As to conditions: kinetic from dmso stock. The protocol:
Preparation of stock solutions: The stock solutions of test compounds and control compound diclofenac were prepared in DMSO at the concentrations of 10 mM.
Simulated Gastric Fluid (SGF): An aqueous mixture including hydrochloric acid, sodium chloride, and pepsin (pH=1.2).
Simulated Intestinal Fluid (SIF): Prepared by dissolving 6.8 g of KH2PO4 into about 500 mL ultrapure water and adjust the solution to a pH 6.8 with 0.1 M NaOH. 10 g trypsin is then dissolved into ultrapure water. The two solutions are mixed well and diluted with ultrapure water to a final volume of 1000 mL.
485 μL of (SIF, SGF, PBS 7.4, FESSIF, or FESSGF) was added into each vial of the cap-less Solubility Sample plate. The assay was performed in duplicate. Add one stir stick to each vial and seal using a molded PTFE/Silicone plug. […] After completion of the 2 hours, plugs were removed and the stir sticks were removed using a big magnet, the samples from the Solubility Sample plate were transferred into the filter plate. Using the Vacuum Manifold, all the samples were filtered. Aliquot of 5 μL and 5 μL DMSO were taken from the filtrate followed by addition of 490 μL of a mixture of H2O and acetonitrile containing internal standard (1:1). A certain proportion of ultrapure water was used to dilute the diluent according to the peak shape. The dilution factor was changed according to the solubility values and the LC-MS signal response.
Preparation of 300 μM standards (STD): From the 10 mM DMSO STD plate, 6 μL was transferred into the remaining empty plate, and then 194 μL of DMSO was added to that plate to have a STD concentration of 300 μM. From the 300 μM DMSO STD plate, 5 μL DMSO STD and 5 μL SIF was transferred into the remaining empty plate, and then 490 μL of a mixture of H2O and acetonitrile containing internal standard (1:1) was added to that plate to have a final STD concentration of 3 μM. A certain proportion of ultrapure water was used to dilute the diluent according to the peak shape. The concentrations of the standard samples were changed according to the LC-MS signal response.
Procedure for sample analysis: The plate was placed into the well plate autosampler. The samples were evaluated by LC-MS/MS analysis.
Data analysis: All calculations were carried out using Microsoft Excel. The filtrate was analyzed and quantified against a standard of known concentration using LC coupled with mass spectral peak identification and quantitation. Solubility values of the test compound and control compound were calculated as follows: […]
Any value of the compounds that was not within the specified limits was rejected and the experiment was repeated.

A short description of data set [3]: Tolerability in the xenograft studies. Type of data set: in vivo. As to conditions: highest dose tested 100 mg/kg, daily dosing over >50 days, all xenograft studies. Here is the method: Xenograft Studies. Female NCR nude mice (CrTac:NCr-Foxn1mu from Taconic), 6-7 weeks old, were implanted subcutaneously with 5×10^6 cells in a […] serum-free media/Matrigel® mixture into the region of the right axilla, Mice were randomized into treatment groups and treatments initiated when tumors reached 100 to 200 mg. Compound 2R was administered daily by oral gavage as a fine suspension in 1:2 propylene glycol in 1% Tween80, Na3PO4 based upon individual animal body weight (0.2 mL/20 g). Subcutaneous tumor volume and body weights were measured two to three times a week. Tumor volumes were calculated by measuring two perpendicular diameters with calipers and using the formula: tumor volume=(length×width2)/2. Individual mice were dosed daily until their tumor burden reached 500 mg for the CAL-27 and HCC-70 models or 1000 mg for the CAL-33 model, to allow for calculation of increase in progression-free survival. Percent increase in survival was calculated by comparing the median time to reach either 500 mg or 1000 mg in the treated group versus the vehicle control group. A complete response (CR) is defined as a tumor below the limits of palpation ([…]).

Data set [4] is described as follows: Pharmacokinetics in mice, single IV / oral dose. Type of data set: in vivo. The protocol:
(§1) The pharmacokinetics of Compound 2R (HCl salt) and Comparative Compound 2 were studied following a single intravenous and/or oral administration to mice, dogs, and monkeys (n=3 for all species). The IV and PO solution formulations for Comparative Compound 2 contained 20% (w/v) propylene glycol, 75% (w/v) 50 mM trisodium phosphate (pH 12), and 5% (w/v) Kolliphor EL. The formulation for Compound 2R contained 1:2 propylene glycol: 1% Tween 80/Na3PO4 (50 mM). Subsequent pharmacokinetic data analysis was performed using non-compartmental analysis modules in Phoenix/WINNONLIN 6.3 (Pharsight, St. Louis, Missouri, USA), and the linear trapezoidal rule was used for AUC calculation. Terminal elimination half-life (t½) was calculated based on data points (≥3) in the terminal phase; Tmax=Time of maximum observed concentration; AUClast/D=Area under the concentration-time curve from time zero to the last observed concentration/divided by dose; Cl_obs=Total body clearance; Cmax=maximum observed concentration; F=bioavailability of oral dose form. Blood samples were assayed for compounds using protein precipitation with acetonitrile followed by HPLC/MS/MS analysis. Blood concentration-time data were analyzed by non-compartmental methods.

Data set [5] is described as follows: Pharmacokinetics in dogs, single IV / oral dose. Type of data set: in vivo. Here is the method: as §1
A short description of data set [6]: Pharmacokinetics in monkeys, single IV / oral dose. Type of data set: in vivo. Here is the method: as §1

Read-outs that look alike come from different tables or passages of the source.

Sequence of PI3Ka (P42336 whole entry): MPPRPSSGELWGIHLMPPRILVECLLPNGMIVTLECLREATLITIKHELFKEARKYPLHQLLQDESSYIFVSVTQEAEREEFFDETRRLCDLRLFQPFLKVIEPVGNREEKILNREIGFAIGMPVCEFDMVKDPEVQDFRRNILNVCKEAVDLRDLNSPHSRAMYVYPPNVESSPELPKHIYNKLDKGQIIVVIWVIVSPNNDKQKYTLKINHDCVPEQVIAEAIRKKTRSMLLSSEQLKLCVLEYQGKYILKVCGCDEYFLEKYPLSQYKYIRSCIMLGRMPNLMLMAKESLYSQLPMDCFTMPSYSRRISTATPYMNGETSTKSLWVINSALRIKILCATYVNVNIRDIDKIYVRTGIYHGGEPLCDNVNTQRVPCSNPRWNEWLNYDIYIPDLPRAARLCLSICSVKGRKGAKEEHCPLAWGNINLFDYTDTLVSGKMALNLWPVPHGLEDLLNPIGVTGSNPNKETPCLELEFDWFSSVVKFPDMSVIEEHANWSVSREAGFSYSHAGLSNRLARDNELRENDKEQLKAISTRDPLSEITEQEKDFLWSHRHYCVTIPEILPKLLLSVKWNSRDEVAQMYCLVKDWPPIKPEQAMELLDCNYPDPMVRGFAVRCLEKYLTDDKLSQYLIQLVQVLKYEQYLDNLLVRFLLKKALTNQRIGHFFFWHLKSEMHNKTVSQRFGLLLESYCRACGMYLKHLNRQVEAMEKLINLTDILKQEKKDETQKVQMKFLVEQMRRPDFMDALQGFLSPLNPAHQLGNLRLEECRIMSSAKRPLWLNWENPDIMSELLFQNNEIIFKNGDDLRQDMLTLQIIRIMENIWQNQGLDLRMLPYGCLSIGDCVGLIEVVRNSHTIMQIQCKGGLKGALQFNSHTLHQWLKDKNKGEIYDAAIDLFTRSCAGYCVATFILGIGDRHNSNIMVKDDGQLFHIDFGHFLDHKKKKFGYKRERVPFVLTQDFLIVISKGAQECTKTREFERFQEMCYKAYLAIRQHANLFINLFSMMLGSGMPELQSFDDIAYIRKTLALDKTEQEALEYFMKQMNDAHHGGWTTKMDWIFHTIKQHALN
Sequence of PI3Ka (P27986 whole entry partner): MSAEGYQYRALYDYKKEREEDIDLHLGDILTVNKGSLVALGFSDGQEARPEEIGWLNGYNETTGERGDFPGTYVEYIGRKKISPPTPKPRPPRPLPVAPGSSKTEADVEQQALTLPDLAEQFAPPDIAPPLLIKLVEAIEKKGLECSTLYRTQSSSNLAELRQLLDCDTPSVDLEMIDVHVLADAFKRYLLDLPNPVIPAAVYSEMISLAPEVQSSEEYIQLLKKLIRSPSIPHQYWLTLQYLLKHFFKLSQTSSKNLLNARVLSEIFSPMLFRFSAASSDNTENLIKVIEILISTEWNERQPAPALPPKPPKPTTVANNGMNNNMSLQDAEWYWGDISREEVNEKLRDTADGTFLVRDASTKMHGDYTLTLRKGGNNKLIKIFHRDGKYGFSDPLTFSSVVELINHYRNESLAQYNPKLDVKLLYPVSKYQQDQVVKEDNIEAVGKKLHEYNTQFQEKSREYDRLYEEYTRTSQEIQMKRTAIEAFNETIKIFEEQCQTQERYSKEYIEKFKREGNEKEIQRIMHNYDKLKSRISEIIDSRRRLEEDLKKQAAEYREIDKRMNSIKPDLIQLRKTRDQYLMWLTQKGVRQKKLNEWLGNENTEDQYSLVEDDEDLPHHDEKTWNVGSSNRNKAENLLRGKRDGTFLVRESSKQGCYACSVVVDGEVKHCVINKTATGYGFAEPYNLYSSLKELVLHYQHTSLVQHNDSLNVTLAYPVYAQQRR

What is called IC50 is the concentration that inhibits the measured activity by half. Lower therefore signals greater potency in that assay. `C[C@H](Nc1c(C#N)cnc2ccc(-c3cnc(Cl)c(NS(C)(=O)=O)c3)cc12)c1ccccc1` [Compound 48S, N-(2-chloro-5-(3-cyano-4-((1S-phenylethyl)amino)quinolin-6-yl)pyridin-3-yl)methanesulfonamide] displayed an IC50 in data set [1] of less than 2 nM.

As usually defined, the solubility is the concentration that dissolves in the medium under given conditions. For `C[C@@H](Nc1c(C#N)cnc2ccc(-c3cnc(Cl)c(NS(C)(=O)=O)c3)cc12)c1ccccc1` [Compound 48R, N-(2-chloro-5-(3-cyano-4-((1R-phenylethyl)amino)quinolin-6-yl)pyridin-3-yl)methanesulfonamide], the IC50 in data set [1] was in the range of 2 to 20 nM. In addition, the solubility at 2 h is not above 20 µM in data set [2] (aqueous buffer, PBS pH 7.4, 25° C., read-out: Solubility pH 7.4 PBS buffer); more than 200 µM in data set [2] (simulated gastric fluid (SGF), simulated gastric fluid pH 1.2, 25° C., read-out: Solubility SGF); not above 20 µM in data set [2] (simulated intestinal fluid (SIF), fassgf or other biorelevant, simulated intestinal fluid pH 6.8, 25° C., read-out: Solubility SIF).

With `C[C@@H](Nc1ncnc2ccc(-c3cnc(Cl)c(NS(C)(=O)=O)c3)cc12)c1ccccc1` [Compound 2R, N-(2-chloro-5-(4-((1R-phenylethyl)amino)quinazolin-6-yl)pyridin-3-yl)methanesulfonamide], in data set [3], the “Tolerability (body weight loss, clinical signs)” value is on record as “well tolerated”. Moreover, the figures for the “increase in exposure (AUClast/D) vs Comparative Compound 2” value in data set [4] (IV), in data set [5] (IV) and in data set [6] (IV) were approximately 3 fold, approximately 15 fold and approximately 3 fold, respectively. Further, the “enhanced exposure (AUClast/D) relative to Comparative Compound 2” value in data set [4] (oral) is 3 fold. Besides, the “improvement in exposure (AUClast/D) vs Comparative Compound 2” value is more than 28 fold in data set [5] (oral) and more than 74 fold in data set [6] (oral).

As for `CS(=O)(=O)Nc1cc(-c2ccc3ncc(C#N)c(NC4(c5ccccc5)CC4)c3c2)cnc1Cl` [Compound 106, N-[2-chloro-5-[3-cyano-4-[(1-phenylcyclopropyl)amino]-6-quinolyl]-3-pyridyl]methanesulfonamide], the inhibition at 0.1 µM in data set [1] is more than 90%.

Regarding `C[C@@H](Nc1c(C#N)cnc2ccc(-c3cnc(Cl)c(NS(C)(=O)=O)c3)cc12)c1ccc(F)cc1` [Compound 97R, N-[2-chloro-5-[3-cyano-4-[[(1R)-1-(4-fluorophenyl)ethyl]amino]-6-quinolyl]-3-pyridyl]methanesulfonamide], the inhibition at 0.1 µM in data set [1] was in the range of 80 to 90%.

In the case of `CS(=O)(=O)Nc1cc(-c2ccc3ncc(C#N)c(NC4c5ccccc5CC4O)c3c2)cnc1Cl` (stereo not drawn) [Compound 103, N-[2-chloro-5-[3-cyano-4-[(2-hydroxyindan-1-yl)amino]-6-quinolyl]-3-pyridyl]methanesulfonamide], the inhibition at 0.1 µM in data set [1] was more than 90%.
